Tests used:
HDAC2 = HDAC2 (Homo sapiens, UniProt Q92769); assay: HDAC2 colorimetric assay, substrate Boc-Lys(Ac)-AMC; format: biochemical; conditions: Table 1
HDAC3 = HDAC3 (Homo sapiens, UniProt O15379); assay: HDAC3 colorimetric assay, substrate Boc-Lys(Ac)-AMC; format: biochemical; conditions: Table 1
HDAC4 = HDAC4 (Homo sapiens, UniProt P56524); format: biochemical; conditions: Table 1
HDAC6 = target: T1, HDAC6 (Homo sapiens, UniProt Q9UBN7); assay: HDAC6 colorimetric assay, substrate Boc-Lys(Ac)-AMC; format: biochemical; conditions: Table 1; read-out: IC50 HDAC6
T1 sequence (Q9UBN7 1-1215): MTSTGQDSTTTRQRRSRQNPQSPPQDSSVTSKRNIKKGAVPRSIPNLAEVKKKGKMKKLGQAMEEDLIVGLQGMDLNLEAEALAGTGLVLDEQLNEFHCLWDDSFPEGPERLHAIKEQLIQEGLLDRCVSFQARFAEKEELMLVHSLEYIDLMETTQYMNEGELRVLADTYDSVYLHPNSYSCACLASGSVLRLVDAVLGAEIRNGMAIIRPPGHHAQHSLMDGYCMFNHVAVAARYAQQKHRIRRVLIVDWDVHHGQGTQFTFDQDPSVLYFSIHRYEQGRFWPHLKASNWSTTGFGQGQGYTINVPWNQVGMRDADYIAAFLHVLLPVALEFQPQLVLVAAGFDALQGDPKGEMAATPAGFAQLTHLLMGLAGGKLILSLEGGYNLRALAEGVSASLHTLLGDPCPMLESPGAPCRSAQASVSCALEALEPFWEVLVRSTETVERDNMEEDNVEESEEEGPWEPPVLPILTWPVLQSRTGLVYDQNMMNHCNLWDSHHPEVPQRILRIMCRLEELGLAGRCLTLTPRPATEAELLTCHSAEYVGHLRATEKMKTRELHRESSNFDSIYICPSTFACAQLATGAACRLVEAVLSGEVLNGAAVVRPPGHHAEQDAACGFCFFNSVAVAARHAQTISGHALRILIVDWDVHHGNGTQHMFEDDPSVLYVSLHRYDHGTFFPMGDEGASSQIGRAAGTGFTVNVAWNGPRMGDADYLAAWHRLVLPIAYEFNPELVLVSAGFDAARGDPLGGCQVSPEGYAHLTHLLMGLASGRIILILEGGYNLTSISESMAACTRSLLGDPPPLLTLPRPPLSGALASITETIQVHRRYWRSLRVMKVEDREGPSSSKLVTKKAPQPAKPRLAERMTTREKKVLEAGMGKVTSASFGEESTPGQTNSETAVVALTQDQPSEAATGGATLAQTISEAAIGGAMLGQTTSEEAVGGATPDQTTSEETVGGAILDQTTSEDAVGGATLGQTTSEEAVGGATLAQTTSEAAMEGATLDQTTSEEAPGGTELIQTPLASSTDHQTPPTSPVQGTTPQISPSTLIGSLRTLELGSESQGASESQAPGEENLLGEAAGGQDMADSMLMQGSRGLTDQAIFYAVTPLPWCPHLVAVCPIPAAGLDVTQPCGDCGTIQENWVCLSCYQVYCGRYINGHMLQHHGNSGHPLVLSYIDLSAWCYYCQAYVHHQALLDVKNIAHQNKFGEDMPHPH

[1] = test system: uterine leiomyosarcoma cell line SKUT-1; assay: Growth inhibition of cancer cell line, resazurin assay; format: cell-based, Human; conditions: Homo sapiens, SK-UT-1; Table 2, resazurin assay
[2] = test system: breast cancer cell line MCF-7; assay: as above; format: cell-based, Human; conditions: Homo sapiens, MCF7; Table 2, resazurin assay
HDAC1 = HDAC1 (Homo sapiens, UniProt Q13547); assay: HDAC1 colorimetric assay, substrate Boc-Lys(Ac)-AMC; conditions: IC50 HDAC1, Table 1
Protocol: 1 nM of HDAC1 was incubated with increasing concentrations of the respective compound for 30 minutes at 30° C. The reaction was initiated by addition of 50 μM of the substrate Boc-Lys(Ac)-AMC. After an incubation of 60 minutes the reaction was stopped by addition of 20 μM SAHA and the deacetylated substrate was converted into a fluorescent product by the addition of trypsin.

HDAC5 = HDAC5 (Homo sapiens, UniProt Q9UQL6); assay: HDAC5 colorimetric assay, substrate Boc-Lys(TFA)-AMC
HDAC7 = target: T2, HDAC7 (Homo sapiens, UniProt Q8WUI4); assay: HDAC7 colorimetric assay, substrate Boc-Lys(TFA)-AMC; conditions: IC50 HDAC7, Table 1
T2 sequence (Q8WUI4 1-952): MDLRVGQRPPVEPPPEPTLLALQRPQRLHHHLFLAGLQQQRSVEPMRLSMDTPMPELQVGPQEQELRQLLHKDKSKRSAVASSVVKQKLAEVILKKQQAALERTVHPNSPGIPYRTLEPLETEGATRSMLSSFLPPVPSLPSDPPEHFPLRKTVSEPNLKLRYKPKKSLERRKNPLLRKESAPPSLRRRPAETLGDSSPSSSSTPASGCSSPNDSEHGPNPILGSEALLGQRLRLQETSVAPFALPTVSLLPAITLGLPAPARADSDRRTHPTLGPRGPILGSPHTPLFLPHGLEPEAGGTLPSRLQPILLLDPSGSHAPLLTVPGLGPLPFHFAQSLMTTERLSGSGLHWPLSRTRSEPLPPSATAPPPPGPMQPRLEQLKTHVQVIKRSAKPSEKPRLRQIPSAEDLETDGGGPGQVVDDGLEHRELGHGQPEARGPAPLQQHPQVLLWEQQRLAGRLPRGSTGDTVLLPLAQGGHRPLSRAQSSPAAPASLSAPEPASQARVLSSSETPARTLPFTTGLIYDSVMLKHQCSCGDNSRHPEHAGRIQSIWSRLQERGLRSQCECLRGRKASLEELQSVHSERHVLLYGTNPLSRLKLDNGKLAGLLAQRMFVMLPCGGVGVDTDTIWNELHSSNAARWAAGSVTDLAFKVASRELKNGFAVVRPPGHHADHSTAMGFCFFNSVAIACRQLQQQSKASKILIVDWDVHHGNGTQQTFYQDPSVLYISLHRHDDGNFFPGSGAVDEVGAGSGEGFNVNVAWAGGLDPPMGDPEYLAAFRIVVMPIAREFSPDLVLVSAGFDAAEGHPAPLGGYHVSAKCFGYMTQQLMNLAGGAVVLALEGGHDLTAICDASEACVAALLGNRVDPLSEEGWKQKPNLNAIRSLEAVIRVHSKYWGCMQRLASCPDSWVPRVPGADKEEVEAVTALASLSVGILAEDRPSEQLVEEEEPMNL

HDAC8 = target: T3, HDAC8 (Homo sapiens, UniProt Q9BY41); assay: HDAC8 colorimetric assay, substrate Boc-Lys(TFA)-AMC; conditions: IC50 HDAC8, Table 1
T3 sequence (Q9BY41 1-377): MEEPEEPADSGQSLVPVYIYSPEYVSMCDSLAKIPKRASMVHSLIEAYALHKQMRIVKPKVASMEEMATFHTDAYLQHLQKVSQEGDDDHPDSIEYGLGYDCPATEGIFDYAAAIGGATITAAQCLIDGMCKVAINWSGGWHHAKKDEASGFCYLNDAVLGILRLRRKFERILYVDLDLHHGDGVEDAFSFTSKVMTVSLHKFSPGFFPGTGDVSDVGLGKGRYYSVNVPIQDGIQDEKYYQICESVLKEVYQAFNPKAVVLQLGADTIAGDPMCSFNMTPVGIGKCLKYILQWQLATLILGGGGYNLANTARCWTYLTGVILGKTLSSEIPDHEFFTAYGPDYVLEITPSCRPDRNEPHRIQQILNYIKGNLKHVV
Protocol: 1 nM of HDAC4 was incubated with increasing concentrations of the respective compound for 30 minutes at 30° C. The reaction was initiated by addition of 20 μM of the substrate Boc-Lys(trifluoracetyl)-AMC. After an incubation of 60 minutes the reaction was stopped by addition of 20 μM SAHA and the deacetylated substrate was converted into a fluorescent product by the addition of trypsin.

[3] = test system: T cell leukemia cell line JURKAT; assay: Growth inhibition of cancer cell line, resazurin assay; conditions: Homo sapiens, Jurkat, read-out: GI50 JURKAT
Protocol: The following tumor cell lines were used: • Human uterine leiomyosarcoma cell line SKUT-1 (ATCC® HTB114™) • Human T cell leukemia cell line JURKAT (ATCC® TIB152™) • Human breast cancer cell line MCF-7 (ATCC® HTB22™)
Cells were cultured in Dulbecco's modified Eagle's medium (DMEM) supplemented with 10% FCS.

Chain of HDAC3 (O15379 whole entry): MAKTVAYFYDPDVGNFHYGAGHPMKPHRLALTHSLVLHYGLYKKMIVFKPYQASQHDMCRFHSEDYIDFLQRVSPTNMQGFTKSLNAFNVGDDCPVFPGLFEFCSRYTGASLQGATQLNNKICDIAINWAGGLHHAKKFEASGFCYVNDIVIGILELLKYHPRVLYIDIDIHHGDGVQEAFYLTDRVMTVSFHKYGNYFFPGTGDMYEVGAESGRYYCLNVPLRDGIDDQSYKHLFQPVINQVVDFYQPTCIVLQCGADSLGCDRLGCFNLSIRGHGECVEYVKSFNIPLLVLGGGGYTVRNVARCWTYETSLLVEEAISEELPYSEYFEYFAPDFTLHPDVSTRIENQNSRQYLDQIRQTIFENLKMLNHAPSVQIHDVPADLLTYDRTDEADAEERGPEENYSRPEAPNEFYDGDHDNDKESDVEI
Chain of HDAC3 (Q9Y618 395-489 partner limits assumed): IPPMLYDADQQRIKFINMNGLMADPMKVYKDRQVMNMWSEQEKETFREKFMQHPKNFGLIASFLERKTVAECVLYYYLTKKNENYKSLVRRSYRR
Chain of HDAC1 (Q13547 whole entry): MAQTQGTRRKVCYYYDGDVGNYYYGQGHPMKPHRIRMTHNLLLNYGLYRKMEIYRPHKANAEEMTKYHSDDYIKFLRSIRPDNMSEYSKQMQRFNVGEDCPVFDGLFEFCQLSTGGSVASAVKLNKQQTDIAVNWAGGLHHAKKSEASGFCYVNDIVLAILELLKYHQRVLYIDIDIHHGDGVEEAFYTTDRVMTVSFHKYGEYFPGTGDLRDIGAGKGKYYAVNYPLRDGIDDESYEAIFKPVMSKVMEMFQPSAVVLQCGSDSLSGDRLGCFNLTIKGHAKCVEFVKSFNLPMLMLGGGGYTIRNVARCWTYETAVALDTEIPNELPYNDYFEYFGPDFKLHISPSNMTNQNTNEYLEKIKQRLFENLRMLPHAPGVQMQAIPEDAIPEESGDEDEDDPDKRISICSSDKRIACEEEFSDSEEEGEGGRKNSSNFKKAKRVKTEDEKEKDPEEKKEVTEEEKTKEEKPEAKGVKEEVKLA
Chain of HDAC5 (Q9UQL6 whole entry): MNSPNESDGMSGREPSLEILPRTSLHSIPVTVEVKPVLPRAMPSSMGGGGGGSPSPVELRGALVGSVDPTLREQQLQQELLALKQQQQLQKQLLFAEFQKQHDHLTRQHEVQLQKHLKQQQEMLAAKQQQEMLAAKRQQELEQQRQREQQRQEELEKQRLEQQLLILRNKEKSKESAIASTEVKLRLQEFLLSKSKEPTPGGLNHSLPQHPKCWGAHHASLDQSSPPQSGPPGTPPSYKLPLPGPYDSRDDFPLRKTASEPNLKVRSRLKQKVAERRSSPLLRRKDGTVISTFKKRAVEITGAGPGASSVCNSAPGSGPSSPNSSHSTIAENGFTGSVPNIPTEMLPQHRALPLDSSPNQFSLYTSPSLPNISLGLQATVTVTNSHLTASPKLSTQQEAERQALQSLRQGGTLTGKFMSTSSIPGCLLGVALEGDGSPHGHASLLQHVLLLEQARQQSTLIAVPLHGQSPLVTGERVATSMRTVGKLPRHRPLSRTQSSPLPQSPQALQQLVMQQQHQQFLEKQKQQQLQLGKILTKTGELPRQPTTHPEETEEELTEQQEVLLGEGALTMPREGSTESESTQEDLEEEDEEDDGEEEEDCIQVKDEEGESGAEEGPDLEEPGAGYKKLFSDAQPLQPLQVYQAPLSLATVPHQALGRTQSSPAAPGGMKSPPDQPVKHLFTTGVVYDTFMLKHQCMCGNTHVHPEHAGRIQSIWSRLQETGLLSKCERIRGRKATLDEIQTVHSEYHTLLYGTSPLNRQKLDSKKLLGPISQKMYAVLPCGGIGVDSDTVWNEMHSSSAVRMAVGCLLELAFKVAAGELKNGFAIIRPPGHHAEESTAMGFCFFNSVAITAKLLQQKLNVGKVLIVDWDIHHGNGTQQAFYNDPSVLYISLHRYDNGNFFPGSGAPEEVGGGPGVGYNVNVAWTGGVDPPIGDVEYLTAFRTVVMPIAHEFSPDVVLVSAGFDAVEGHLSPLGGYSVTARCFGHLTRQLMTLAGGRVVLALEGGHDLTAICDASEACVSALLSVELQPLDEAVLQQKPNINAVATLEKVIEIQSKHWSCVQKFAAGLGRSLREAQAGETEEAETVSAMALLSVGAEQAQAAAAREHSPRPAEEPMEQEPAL
Chain of HDAC4 (P56524 whole entry): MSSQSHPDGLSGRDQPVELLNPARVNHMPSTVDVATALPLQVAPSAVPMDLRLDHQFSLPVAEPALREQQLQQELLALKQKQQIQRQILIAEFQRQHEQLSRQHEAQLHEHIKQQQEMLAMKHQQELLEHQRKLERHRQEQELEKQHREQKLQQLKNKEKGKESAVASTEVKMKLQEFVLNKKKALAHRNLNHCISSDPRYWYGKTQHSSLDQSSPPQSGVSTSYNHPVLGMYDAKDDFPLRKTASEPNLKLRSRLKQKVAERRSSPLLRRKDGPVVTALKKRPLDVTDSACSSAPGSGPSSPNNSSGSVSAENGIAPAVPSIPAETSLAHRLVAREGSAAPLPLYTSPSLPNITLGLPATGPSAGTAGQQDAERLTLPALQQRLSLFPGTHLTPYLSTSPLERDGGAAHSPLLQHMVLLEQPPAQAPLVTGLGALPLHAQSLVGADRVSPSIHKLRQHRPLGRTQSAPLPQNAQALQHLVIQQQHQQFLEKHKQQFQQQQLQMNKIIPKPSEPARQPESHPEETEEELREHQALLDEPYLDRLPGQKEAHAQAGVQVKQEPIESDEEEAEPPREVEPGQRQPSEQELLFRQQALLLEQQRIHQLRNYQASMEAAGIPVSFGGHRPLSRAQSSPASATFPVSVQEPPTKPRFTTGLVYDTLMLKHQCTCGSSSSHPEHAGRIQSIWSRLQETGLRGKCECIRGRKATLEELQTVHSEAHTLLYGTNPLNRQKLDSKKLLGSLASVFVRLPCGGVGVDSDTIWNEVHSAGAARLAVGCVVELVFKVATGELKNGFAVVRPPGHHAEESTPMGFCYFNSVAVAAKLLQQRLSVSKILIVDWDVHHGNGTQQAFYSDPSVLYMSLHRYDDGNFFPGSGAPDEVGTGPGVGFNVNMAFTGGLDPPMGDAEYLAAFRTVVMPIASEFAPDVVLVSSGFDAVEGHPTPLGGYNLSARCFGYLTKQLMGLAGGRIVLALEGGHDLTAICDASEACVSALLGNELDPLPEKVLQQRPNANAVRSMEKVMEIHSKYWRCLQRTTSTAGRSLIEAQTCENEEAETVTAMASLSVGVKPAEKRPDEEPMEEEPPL
Chain of HDAC2 (Q92769 whole entry): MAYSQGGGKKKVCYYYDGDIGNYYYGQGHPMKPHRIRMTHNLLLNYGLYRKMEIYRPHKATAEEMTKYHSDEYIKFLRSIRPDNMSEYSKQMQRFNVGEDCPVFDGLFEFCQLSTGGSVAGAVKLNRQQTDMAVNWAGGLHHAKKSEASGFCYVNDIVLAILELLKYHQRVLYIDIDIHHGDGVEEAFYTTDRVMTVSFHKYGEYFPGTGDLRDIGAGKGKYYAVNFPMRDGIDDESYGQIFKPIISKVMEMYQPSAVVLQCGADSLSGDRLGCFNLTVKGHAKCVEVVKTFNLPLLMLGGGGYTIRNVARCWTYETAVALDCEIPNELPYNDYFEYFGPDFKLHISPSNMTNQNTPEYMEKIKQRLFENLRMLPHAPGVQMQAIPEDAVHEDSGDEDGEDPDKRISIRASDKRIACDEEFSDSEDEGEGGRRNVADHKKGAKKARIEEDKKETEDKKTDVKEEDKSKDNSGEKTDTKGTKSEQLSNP

| SMILES | IC50 (HDAC2) [µM] | IC50 (HDAC3) [µM] | IC50 (HDAC4) [µM] | IC50 (HDAC6) [nM] | GI50 [1] [µM] | GI50 [2] [µM] | IC50 (HDAC1) [µM] | IC50 (HDAC5) [nM] | IC50 (HDAC7) [nM] | IC50 (HDAC8) [nM] | GI50 [3] [µM] |
| --- | --- | --- | --- | --- | --- | --- | --- | --- | --- | --- | --- |
| N=C1Sc2c(F)cccc2C2=NCCN12 [Compound 13i, 7-Fluoro-2H-Benzo[e]Imidazo[1,2-c][1,3]Thiazin-5(3H)-Imine] | > 50 | > 50 | > 50 | > 50000 | 109 ± 29 | 16 ± 3 | > 50 | > 50000 | > 50000 | 9200 ± 300 | 24 ± 3 |
| Cc1ccc2c(c1)SC(=N)N1CCCN=C21 [Compound 13k, 9-Methyl-3,4-Dihydrobenzo[e]Pyrimido[1,2-c][1,3]Thiazin-6(2H)-Imine] | > 50 | 26 ± 4 | 7.6 ± 0.8 | 1300 ± 300 | 45 ± 16 | 44 ± 12 | 5.8 ± 0.3 | 240 ± 10 | 2500 ± 100 | 5.4 ± 0.4 | 36 ± 4 |
| N=C1Sc2ccc(F)cc2C2=NCCCN12 [Compound 13l, 10-Fluoro-3,4-Dihydrobenzo[e]Pyrimido[1,2-c][1,3]Thiazin-6(2H)-Imine] | 30 ± 2 | 5.3 ± 0.4 | 2.2 ± 0.3 | 650 ± 110 | 24 ± 5 | 79 ± 11 | 2.1 ± 0.2 | 46 ± 3 | 1500 ± 400 | 6 ± 0.6 | 16 ± 2 |

Now from value to compound:

| IC50 (HDAC2) [µM] | IC50 (HDAC3) [µM] | IC50 (HDAC4) [µM] | IC50 (HDAC6) [nM] | GI50 [1] [µM] | GI50 [2] [µM] | IC50 (HDAC1) [µM] | IC50 (HDAC5) [nM] | IC50 (HDAC7) [nM] | IC50 (HDAC8) [nM] | GI50 [3] [µM] | SMILES |
| --- | --- | --- | --- | --- | --- | --- | --- | --- | --- | --- | --- |
| 16 ± 2 | 7 ± 0.5 | 2.3 ± 0.3 | 1400 ± 200 | 16 ± 3 | 11 ± 3 | 2.6 ± 0.3 | 38 ± 1 | 2000 ± 700 | 6.3 ± 0.4 | 17 ± 3 | N=C1Sc2cccc(Br)c2C2=NCCCN12 [Compound 13j, 11-Bromo-3,4-Dihydrobenzo[e]Pyrimido[1,2-c][1,3]Thiazin-6(2H)-Imine] |
| > 50 | 9.6 ± 0.7 | 3.2 ± 0.5 | 1300 ± 300 | 35 ± 2 | 179 ± 66 | 3.7 ± 0.4 | 38 ± 2 | 1300 ± 200 | 4.3 ± 0.5 | 23 ± 2 | Cc1cccc2c1C1=NCCCN1C(=N)S2 [Compound 13m, 11-Methyl-3,4-Dihydrobenzo[e]Pyrimido[1,2-c][1,3]Thiazin-6(2H)-Imine] |

— patent US20210220370A1, “SELECTIVE HDAC8 INHIBITORS AND THEIR USES” (HOCHSCHULE DARMSTADT, priority 2015, published 2021)
